Holding throughout (type): cell-based
Test [1] has as its system Kv2.1. The test can be described thus: microelectrode voltage-clamp, Xenopus laevis oocytes, Kv2.1. The following applies: 10 μM, 300-ms depolarization to +20 mV from -90 mV, pH 7.5, 19-23°C, n = 3. The protocol:
(§1) Briefly, plasmids were linearized, and transcription was carried out according to the standardized protocol. Afterwards, the capped cRNAs that encoded the related ion channels were prepared. To conduct transcription in vitro, firstly, NotL was utilized to linearize plasmids pCI that contained both Kv1.1 (Accession: NM_010595.3) and Kv2.1 (Accession: AF026005.1), whereas SphI was adopted to linearize plasmid PcDNA3 containing Kv1.2 (Accession: NM_012970.3) gene. […] Thereafter, the linearized plasmids were used as the templates to synthesize cRNAs in vitro using the large-scale T7 mMESSAGE mMACHINE transcription kit (Ambion, USA).
(§2) A mature female X. laevis was placed on the ice for anesthesia, and then the Xenopus laevis oocytes at stage IV-VI were extracted. Subsequently, those extracted oocytes were treated by collagenase (1 mg/mL) contained within the calcium-depleted ND96 solution (containing 96 mM NaCl, 10 mM HEPES, 1 mM MgCl2, and 2 mM KCl) for defolliculation. […]
(§3) Firstly, the effects of JZTX-X on the isoforms of potassium channels (including Kv1.1-1.3, Kv2.1, as well as Kv4.2-4.3) contained within the X. laevis oocytes were investigated through the microelectrode voltage-clamp approach. […] We also determined the effects of JZTX-X on Ito potassium channels in rat DRG neurons; those current amplitudes were inhibited by 54.4±6.8% when 500 nM JZTX-X was applied (Fig. 3K, n = 5).

Test [2] has as its system Kv1.2. The test can be described thus: microelectrode voltage-clamp, Xenopus laevis oocytes, Kv1.2. The following applies: 10 μM, 300-ms depolarization to +20 mV from -90 mV, pH 7.5, 19-23°C, n = 3. On the procedure: as §1, §2, §3
The subject of test [3] is Ito potassium channels. Kind of test: voltage-clamp, Ito potassium currents in rat DRG neurons. The protocol:
An EPC-10 patch-clamp amplifier (HEKA, Germany) was employed to record the potassium currents at the configuration of whole-cell patch-clamp under an ambient temperature of 22-25°C. The resistance was 2.0-3.0 MΩ when the recording pipette contained a full volume of internal solution (supplemented with 140 mM KCl, 10 mM HEPES, 2.5 mM MgCl2, 5 mM ATP and 11 mM EGTA). KOH was utilized to adjust the pH to 7.2, while sucrose was employed to adjust the osmolarity to 310 mOsm/L. The culture medium was replaced with an external solution containing 150 mM NaCl, 2.5 mM CaCl2, 10 mM HEPES, 2 mM MgCl2, 5 mM KCl, and 10 mM D-glucose. Similarly, sucrose and NaOH were applied to adjust the osmolarity to 330 mOsm/L and pH to 7.4. […] The series resistance was maintained at about 5 MΩ, with 65-70% compensation. Finally, the leakage currents and linear capacitance were subtracted digitally according to the P/4 protocol. […]
as §3

Where a SMILES comes first, the peptide text is derived from it. Bridges are numbered along the chain shown (N, C = ends).

What is called IC50 is the concentration that inhibits the measured activity by half. Consider `CC(C)C[C@@H]1NC(=O)[C@H](CCCCN)NC(=O)[C@H](Cc2ccc(O)cc2)NC(=O)[C@@H]2CSSC[C@@H]3NC(=O)[C@H](Cc4ccc(O)cc4)NC(=O)[C@H](Cc4ccccc4)NC(=O)CNC(=O)[C@H](C)NC(=O)[C@H](CSSC[C@H](NC(=O)[C@@H](N)CC(C)C)C(=O)N[C@@H](CO)C(=O)N[C@@H](CCCNC(=N)N)C(=O)N[C@@H](CCC(=O)O)C(=O)NCC(=O)N[C@@H](CCC(=O)O)C(=O)N[C@@H](Cc4ccccc4)C(=O)N2)NC(=O)[C@H](CSSC[C@@H](C(=O)N[C@@H](Cc2ccc(O)cc2)C(=O)N[C@@H](CCCNC(=N)N)C(=O)N[C@@H](CC(N)=O)C(=O)O)NC(=O)[C@H](Cc2c[nH]cn2)NC(=O)[C@H](CC(C)C)NC(=O)[C@H](C(C)C)NC(=O)[C@H](Cc2ccccc2)NC(=O)[C@H](C)NC(=O)[C@H](CCCCN)NC3=O)NC(=O)[C@H](CCCCN)NC(=O)[C@H](CCCNC(=N)N)NC1=O` [JZTX-X, Jingzhaotoxin-X] (H-LCSREGEFCYKLRKCCAGFYCKAFVLHCYRN-OH; disulfide 2-16, 9-21, 15-28; N-terminus assumed), for which the “inhibition of Kv2.1 current” value in test [1] is “less than 5%”. The “inhibition of Kv1.2 current” value in test [2] was “less than 5%”. Further, the “inhibition of Ito current” value in test [3] (500 nM, n = 5) is on record as 54.4±6.8%. For the same compound, the IC50 in test [3] (Hill equation fit, n = 6) amounted to 0.386 µM.

The values above are taken from PMC7269146, “Jingzhaotoxin-X, a gating modifier of Kv4.2 and Kv4.3 potassium channels purified from the venom of the Chinese tarantula Chilobrachys jingzhao” (The Journal of Venomous Animals and Toxins Including …, 2020).
